From patent publication US4157400A, “Terpenophenoxyalkylamines and pharmaceutical compositions and uses thereof” (MAR-PHA, Societe d'Etude et d'Exploitation de Marques, priority 1976, dated 1979) come the findings set out here.

As usually defined, the EC50 is the concentration giving half of the maximal effect. High values mean a less potent agent, low ones a more potent agent. The term LD50 denotes the dose expected to kill half of the subjects tested.

Structures are written as SMILES. Values after ≈ are worked out from the molar mass of the structure shown.

The test system of series [1] is tachycardia induced by isoproterenol. The series can be described thus: Beta-sympatholytic activity: antagonism of isoproterenol-induced tachycardia in the non-anesthetized rabbit. The class given is in vivo. The following applies: for Maximum Inhibition of tachycardia (as a %): isoproterenol 0.010 mg/kg i.v. As to the method: The technique consists of evaluating the antagonism exerted by the products with regard to induced tachycardia, in an alert rabbit, by a sympatho-stimulant agent, isoproterenol, administered in a dose of 0.010 mg/kg intravenously. The animal is placed in a restraining box and the marginal vein of the ear is catheterized. The animal's electrocardiogram is picked up by two electrodes implanted in shunt DII and connected to a telemetric transmitter. A polygraph, coupled to a receiver, simultaneously records the electrocardiogram and the cardiac rhythm by integration of the waves R.
First of all, one makes certain of the stability and reproducibility of isoprenalinic tachycardia and the substance to be studied is administered. In the case of intravenous administration of the products, the injections of isoproterenol are then repeated 5 minutes later, then every 15 minutes, until the tachycardia returns to its initial intensity. When the products are administered orally, the injections of the beta-stimulant are repeated 15, 30, 45 and 60 minutes, then 2, 3, 5, 24 and 48 hours afterwards.
The beta-sympatholytic activity is expressed by the maximum percentage decrease of the tachycardia induced by isoproterenol. The total duration of the effect is also noted.

Series [2] deals with removed duodenum of the rat, spasms induced by barium chloride. Kind of series: Spasmolytic activity on the detached duodenum of the rat, musculotrope (versus BaCl2; Magnus). The source says:
(§1) The spasmolytic neurotropes inhibit the contractions of the organ caused by acetylcholine,whereas the musculotropes prevent the spasms induced by barium chloride. The following table summarises the results expressed as a 50% effective concentration (EC50) in mg/l.

Another series relates to rabbit's heart. The series can be described thus: Coronaro-dilatory activity on the isolated rabbit heart (technique derived from Langendorff). Here is the method:
In this technique, the survival liquid perfusing the heart contains 0.5 I.U./l post-hypophysis intended for permanently maintaining a slight vaso-constriction of the coronary vascular system. The products to be studied are administered in the region of the aortic canal in a volume of 1 cm^3 over a period of 1 minute. The results are expressed as a percentage variation of the coronary output after the injection of the product with respect to the initial output, the output being measured by integration of the frequency of drops of survival liquid escaping from the heart after having passed through the coronary system.

For series [3], the system named is removed duodenum of the rat, contractions caused by acetylcholine. Kind of series: Spasmolytic activity on the detached duodenum of the rat, neurotrope (versus acetylcholine; Magnus).
Source text: as §1

A short description of series [4]: Acute toxicity in the mouse (LD50). The following applies: in vivo, male CD1 mouse, 3 days observation. As to the method: Acute toxicities of the compounds according to the invention have been determined in the male mouse CD1 (Charles RIVER) both intravenously and orally. The LD50 were calculated after observation for 3 days by the method of REED, JJ. and MUENCH, H. (Am. J. Hy, 27 493, 1938).

On to `CC(C)NCC(O)COc1ccccc1[C@@H]1C[C@H]2CC[C@@H]1C2` (relative stereo) [Example 1, 1-isopropylamino-3-[2-(2-norbornyl exo)phenoxy]propan-2-ol], for which the “Duration of Inhibiting effect” value in series [1] (intravenous dose 0.1 mg/kg) is “approx. 50 minutes”; in series [1] (intravenous dose 0.3 mg/kg) it was “approx 21/2”; in series [1] (intravenous dose 0.5 mg/kg) it was “more than 2 hrs”; in series [1] (intravenous dose 1 mg/kg), “more than 2 hrs”; in series [1] (oral dose 9 mg/kg) it was “more than 3 hrs”; in series [1] (oral dose 17.5 mg/kg), “approx. 24 hrs”. The results for the “Duration of Inhibiting effect” value in series [1] (oral dose 35 mg/kg), in series [1] (oral dose 75 mg/kg) and in series [1] (oral dose 150 mg/kg) were “approx. 48 hrs”, “approx. 48 hrs” and “more than 48 hrs”, respectively. For the same compound, the “Maximum Inhibition of tachycardia (as a %)” value (“Maximum Inhibition … (as a %)” for short) in series [1] (intravenous dose 0.1 mg/kg) is reported as 24%; in series [1] (intravenous dose 0.3 mg/kg), 67%; in series [1] (intravenous dose 0.5 mg/kg) it was 54%; in series [1] (intravenous dose 1 mg/kg), 86%; in series [1] (oral dose 9 mg/kg) it was 40%; in series [1] (oral dose 17.5 mg/kg) it was 73%. Moreover, the “Maximum Inhibition … (as a %)” value in series [1] (oral dose 35 mg/kg) is listed as 88%; in series [1] (oral dose 75 mg/kg) it was 80%; in series [1] (oral dose 150 mg/kg), 82%. Also, the EC50 in series [2] came to 0.15 µg/mL (≈ 0.494 µM); in series [3], 0.18 µg/mL (≈ 0.593 µM). Moreover, the activation at 0.003 µg/mL in the series with rabbit's heart (Oryctolagus cuniculus, dose 0.003 mg/l, increase (+) versus initial output, post-hypophysis 0.5 I.U./l, read-out: % Variation of coronary output) is 13%. The activation at 0.01 µg/mL in the series with rabbit's heart (Oryctolagus cuniculus, dose 0.010 mg/l, increase (+) versus initial output, post-hypophysis 0.5 I.U./l, read-out: % Variation of coronary output) was determined as 57%. For the same compound, in the series on rabbit's heart (Oryctolagus cuniculus, dose 0.030 mg/l, increase (+) versus initial output, post-hypophysis 0.5 I.U./l, read-out: % Variation of coronary output), the activation at 0.03 µg/mL was 133%. In the series with rabbit's heart (Oryctolagus cuniculus, dose 0.100 mg/l, increase (+) versus initial output, post-hypophysis 0.5 I.U./l, read-out: % Variation of coronary output), the activation at 0.1 µg/mL came to 225%. Besides, the “Duration of the effect” value in the series with rabbit's heart (dose 0.003 mg/l) stood at 3 min; in the series with rabbit's heart (dose 0.010 mg/l) it was 3 min; with rabbit's heart (dose 0.030 mg/l), 15 min; with rabbit's heart (dose 0.100 mg/l), 9 min. Besides, the “coronaro-dilatory effects (in words)” value in the series with rabbit's heart (isolated rabbit heart) was “considerable coronaro-dilatory effects, whose intensity and duration clearly increase with the concentration”. The LD50 at 72 h in series [4] (iv, intravenously) came out at 60 mg/kg; in series [4] (po, orally) it was 800 mg/kg.
As for `CC(C)NCC(O)COc1ccccc1[C@H]1C[C@H]2CC[C@@H]1C2` (relative stereo) [Example 2, 1-isopropylamino-3-[2-(2-norbornyl endo)phenoxy]propan-2-ol], the “Duration of Inhibiting effect” value is recorded as “approx. 40 mins” in series [1] (intravenous dose 0.5 mg/kg); “approx. 4 hrs” in series [1] (intravenous dose 1 mg/kg); “approx. 24 hrs” in series [1] (oral dose 17.5 mg/kg); “approx. 48 hrs” in series [1] (oral dose 35 mg/kg); “approx. 48 hrs” in series [1] (oral dose 75 mg/kg); “approx. 48 hrs” in series [1] (oral dose 150 mg/kg). Besides, the “Maximum Inhibition … (as a %)” value in series [1] (intravenous dose 0.5 mg/kg) was 20%; in series [1] (intravenous dose 1 mg/kg), 67%; in series [1] (oral dose 17.5 mg/kg), 64%; in series [1] (oral dose 35 mg/kg) it was 60%; in series [1] (oral dose 75 mg/kg), 80%; in series [1] (oral dose 150 mg/kg), 81%. In addition, the concentration giving a half-maximal response (EC50) was 0.04 µg/mL (≈ 0.132 µM) in series [2] and 0.3 µg/mL (≈ 0.989 µM) in series [3]. Moreover, the 50% lethal dose (LD50) at 72 h in series [4] (iv, intravenously) was 62 mg/kg; in series [4] (po, orally) it was 675 mg/kg.
